Laboratory results published in patent US10597388B2, “Pyridazinone herbicides” (FMC CORPORATION, priority 2014, dated 2020).

How the values were obtained:
Type in all cases: in vivo
[1] = test system: velvetleaf (Abutilon theophrasti); experiment: Test C greenhouse herbicide test, pre- and postemergence
From the text: (§1) Seeds of plant species selected from blackgrass (Alopecurus myosuroides), ryegrass, Italian (Italian ryegrass, Lolium multiflorum), wheat (winter wheat, Triticum aestivum), galium (catchweed bedstraw, Galium aparine), corn (Zea mays), large crabgrass, large (large crabgrass, Digitaria sanguinalis), foxtail, giant (giant foxtail, Setaria faberii), johnsongrass (Sorghum halepense), lambsquarters (Chenopodium album), morningglory (Ipomoea coccinea), nutsedge, yellow (yellow nutsedge, Cyperus esculentus), pigweed (Amaranthus retroflexus), ragweed (common ragweed, Ambrosia elatior), soybean (Glycine max), barnyardgrass (Echinochloa crus-galli), oilseed rape (Brassica napus), waterhemp (common waterhemp, Amaranthus rudis), and velvetleaf (Abutilon theophrasti) were planted into a blend of loam soil and sand and treated preemergence with test chemicals formulated in a non-phytotoxic solvent mixture which included a surfactant.
(§2) At the same time, plants selected from these crop and weed species and also chickweed (common chickweed, Stellaria media), kochia (Kochia scoparia), and oat, wild (wild oat, Avena fatua), were planted in pots containing Redi-Earth® planting medium (Scotts Company, 14111 Scottslawn Road, Marysville, Ohio 43041) comprising spaghnum peat moss, vermiculite, wetting agent and starter nutrients and treated with postemergence applications of test chemicals formulated in the same manner. Plants ranged in height from 2 to 18 cm (1- to 4-leaf stage) for postemergence treatments. Treated plants and controls were maintained in a greenhouse for 13 to 15 d, after which time all species were compared to controls and visually evaluated. Plant response ratings, summarized in Table C, are based on a scale of 0 to 100 where 0 is no effect and 100 is complete control. A dash (-) response means no test result.

[2] = test system: barnyardgrass (Echinochloa crus-galli); experiment: as above
From the text: as §1, §2

[3] = test system: galium (catchweed bedstraw, Galium aparine); experiment: as above
From the text: as §1, §2

[4] = test system: barnyardgrass (Echinochloa crus-galli); experiment: Test A greenhouse herbicide test, pre- and postemergence
Outline: (§3)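 Visual injury ratings, 0 (no effect) to 100 (complete control), versus untreated plants after roughly 10 d in a greenhouse. Compounds, formulated in a surfactant-containing non-phytotoxic solvent, were sprayed on loam–sand soil after sowing (pre) or on one- to two-leaf plants 2–10 cm tall (post).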

corn (Zea mays) = experiment: as above; settings: Postemergence; for Plant response rating, Corn: 125 g ai/ha, 0 to 100 scale where 0 is no effect and 100 is complete control; for Corn plant response rating: 500 g ai/ha, 0 to 100 scale, 0 is no effect, 100 is complete control
Outline: as §3

[5] = test system: ryegrass, Italian (Italian ryegrass, Lolium multiflorum); experiment: as above
Outline: as §3

[6] = test system: wheat (Triticum aestivum); experiment: as above; settings: Postemergence; for Plant response rating, Wheat: 125 g ai/ha, 0 to 100 scale where 0 is no effect and 100 is complete control; for Wheat plant response rating: 500 g ai/ha, 0 to 100 scale, 0 is no effect, 100 is complete control
Outline: as §3

[7] = test system: foxtail, giant (giant foxtail, Setaria faberii); experiment: as above
Outline: as §3

kochia (Kochia scoparia) = experiment: as above
Outline: as §3

[8] = test system: ragweed (common ragweed, Ambrosia elatior); experiment: as above
Outline: as §3

[9] = test system: pigweed (Amaranthus retroflexus); experiment: as above
Outline: as §3

[10] = Postemergence, 31 g ai/ha, 0 to 100 scale (0 no effect, 100 complete control)
[11] = Postemergence, 125 g ai/ha, scale 0 to 100, 0 is no effect, 100 is complete control
[12] = Postemergence, 250 g ai/ha, scale 0 to 100, 0 no effect, 100 complete control, 13 to 15 d
[13] = Preemergence, 31 g ai/ha, scale 0 to 100, 0 is no effect, 100 is complete control
[14] = Preemergence, 62 g ai/ha, scale 0 to 100, 0 is no effect, 100 is complete control
[15] = Preemergence, 125 g ai/ha, scale 0 to 100, 0 is no effect, 100 is complete control
[16] = Preemergence, 250 g ai/ha, scale 0 to 100 (0 no effect, 100 complete control)
[17] = postemergence, 62 g ai/ha, scale 0 to 100, 0 no effect, 100 complete control
[18] = Postemergence, 125 g ai/ha, 0 to 100 scale where 0 is no effect and 100 is complete control
[19] = Postemergence, 500 g ai/ha, 0 to 100 scale, 0 is no effect, 100 is complete control
[20] = Preemergence, 125 g ai/ha, 0 to 100 scale where 0 is no effect and 100 is complete control
[21] = Preemergence, 500 g ai/ha, 0 to 100 scale, 0 no effect, 100 complete control

With `Cc1cc(C)c2sc(C)c(-c3c(OC(=O)OC(C)C)c(C)nn(C)c3=O)c2c1` [Compound 67] the “Velvetleaf plant response rating” value [1, 10] was 70, the “Plant response rating, Velvetleaf” value [1, 11] was 85 and the “Plant response rating, Velvetleaf” value [1, 12] was 98. The “Plant response rating, Velvetleaf” value [1, 13] was 10, the “Plant response rating, Velvetleaf” value [1, 14] was 35 and the “Plant response rating, Velvetleaf” value [1, 15] was 60. For the same compound, the “Velvetleaf plant response rating” value [1, 16] was 75, the “Velvetleaf plant response rating” value [1, 17] was 85 and the “Barnyardgrass plant response rating” value [2, 10] was 25. The “Plant response rating, Barnyardgrass” value [2, 11] was 35, the “Plant response rating, Barnyardgrass” value [2, 12] was 45 and the “Plant response rating, Barnyardgrass” value [2, 13] was 5. For the same compound, the “Plant response rating, Barnyardgrass” value [2, 14] was 20, the “Plant response rating, Barnyardgrass” value [2, 15] was 40 and the “Barnyardgrass plant response rating” value [2, 16] was 80. For the same compound, the “Barnyardgrass plant response rating” value [2, 17] was 35, the “Galium plant response rating” value [3, 10] was 90 and the “Plant response rating, Galium” value [3, 11] was 95. The “Plant response rating, Galium” value [3, 12] was 90, the “Plant response rating, Galium” value [3, 13] was 70 and the “Plant response rating, Galium” value [3, 14] was 90. For the same compound, the “Plant response rating, Galium” value [3, 15] was 90, the “Galium plant response rating” value [3, 16] was 90 and the “Galium plant response rating” value [3, 17] was 95. The “Plant response rating, Barnyardgrass” value [4, 18] was 20, the “Barnyardgrass plant response rating” value [4, 19] was 70 and the “Barnyardgrass plant response rating” value [4, 20] was 30. For the same compound, the “Plant response rating, Barnyardgrass” value [4, 21] was 90, the “Plant response rating, Corn” value (corn (Zea mays)) was 0 and the “Corn plant response rating” value (corn (Zea mays)) was 0. The “Plant response rating, Ryegrass, Italian” value [5, 18] was 70, the “Ryegrass, Italian plant response rating” value [5, 19] was 90 and the “Ryegrass, Italian plant response rating” value [5, 20] was 90. For the same compound, the “Plant response rating, Ryegrass, Italian” value [5, 21] was 100, the “Plant response rating, Wheat” value [6] was 0 and the “Wheat plant response rating” value [6] was 0. For the same compound, the “Plant response rating, Foxtail, Giant” value [7, 18] was 80, the “Foxtail, Giant plant response rating” value [7, 19] was 90 and the “Foxtail, Giant plant response rating” value [7, 20] was 80. The “Plant response rating, Foxtail, Giant” value [7, 21] was 100, the “Plant response rating, Kochia” value (kochia (Kochia scoparia); [18]) was 20 and the “Kochia plant response rating” value (kochia (Kochia scoparia); [19]) was 30. For the same compound, the “Kochia plant response rating” value (kochia (Kochia scoparia); [20]) was 20, the “Plant response rating, Kochia” value (kochia (Kochia scoparia); [21]) was 20 and the “Plant response rating, Ragweed” value [8, 18] was 50. The “Ragweed plant response rating” value [8, 19] was 70, the “Ragweed plant response rating” value [8, 20] was 80 and the “Plant response rating, Ragweed” value [8, 21] was 80. For the same compound, the “Plant response rating, Pigweed” value [9, 18] was 20, the “Pigweed plant response rating” value [9, 19] was 20 and the “Pigweed plant response rating” value [9, 20] was 90. The “Plant response rating, Pigweed” value [9, 21] was 100.

`Cc1ccc2ccccc2c1-c1c(O)cnn(C)c1=O` [Compound 56] was tested, and the “Velvetleaf plant response rating” value [1, 10] was 0, the “Plant response rating, Velvetleaf” value [1, 11] was 15 and the “Plant response rating, Velvetleaf” value [1, 12] was 70. For the same compound, the “Velvetleaf plant response rating” value [1, 17] was 0, the “Barnyardgrass plant response rating” value [2, 10] was 0 and the “Plant response rating, Barnyardgrass” value [2, 11] was 5. The “Plant response rating, Barnyardgrass” value [2, 12] was 10, the “Barnyardgrass plant response rating” value [2, 17] was 5 and the “Galium plant response rating” value [3, 10] was 80. For the same compound, the “Plant response rating, Galium” value [3, 11] was 90, the “Plant response rating, Galium” value [3, 12] was 90 and the “Galium plant response rating” value [3, 17] was 85. The “Plant response rating, Barnyardgrass” value [4, 18] was 10, the “Barnyardgrass plant response rating” value [4, 19] was 60 and the “Barnyardgrass plant response rating” value [4, 20] was 10. For the same compound, the “Plant response rating, Barnyardgrass” value [4, 21] was 50, the “Plant response rating, Corn” value (corn (Zea mays)) was 0 and the “Corn plant response rating” value (corn (Zea mays)) was 10. For the same compound, the “Plant response rating, Ryegrass, Italian” value [5, 18] was 90, the “Ryegrass, Italian plant response rating” value [5, 19] was 100 and the “Ryegrass, Italian plant response rating” value [5, 20] was 100. For the same compound, the “Plant response rating, Ryegrass, Italian” value [5, 21] was 100, the “Plant response rating, Wheat” value [6] was 10 and the “Wheat plant response rating” value [6] was 50. The “Plant response rating, Foxtail, Giant” value [7, 18] was 20, the “Foxtail, Giant plant response rating” value [7, 19] was 60 and the “Foxtail, Giant plant response rating” value [7, 20] was 30. The “Plant response rating, Foxtail, Giant” value [7, 21] was 70, the “Plant response rating, Kochia” value (kochia (Kochia scoparia); [18]) was 90 and the “Kochia plant response rating” value (kochia (Kochia scoparia); [19]) was 100. For the same compound, the “Kochia plant response rating” value (kochia (Kochia scoparia); [20]) was 40, the “Plant response rating, Kochia” value (kochia (Kochia scoparia); [21]) was 90 and the “Plant response rating, Ragweed” value [8, 18] was 70. For the same compound, the “Ragweed plant response rating” value [8, 19] was 90, the “Ragweed plant response rating” value [8, 20] was 80 and the “Plant response rating, Ragweed” value [8, 21] was 90. The “Plant response rating, Pigweed” value [9, 18] was 80, the “Pigweed plant response rating” value [9, 19] was 90 and the “Pigweed plant response rating” value [9, 20] was 60. For the same compound, the “Plant response rating, Pigweed” value [9, 21] was 100.
